Reference: patent US11117932B2, “Peptides for specific inhibition of Jag 1-Notch 1 pathway” (The Hong Kong Polytechnic University, priority 2018, dated 2021)
Like-named read-outs stand apart in the source and are kept apart here. Residues, ends and D or L forms follow the SMILES beside them.

How the values were obtained:
Jag1-induced NICD1 = experiment: Co-culture assay, Jag1-induced NICD1 level; type: cell-based, human; conditions: N1 at 50 μM
Procedure: (§1) Specificity of N1 (SEQ ID NO: 10) peptide in inhibiting different Notch ligand-induced Notch signaling was investigated using in vitro co-culture assay. HEK293T or CHO cells expressing Notch ligand (either Jag1, DLL1 or DLL4) are co-cultured with Notch1- or Notch2-expressing cells. Notch1 and Notch2 signalling can be measured by either luciferase reporter assay or by the formation of NICD1 and NICD2. […] Half inhibition is reached at between 50 to 100 μM. […] This contrasts with DAPT which affects all the above interactions.
(§2) The cleaved Notch1 (Val1744) (D3B8) rabbit monoclonal antibody (CST) and Notch2 (Cleaved Ala1734) rabbit monoclonal antibody at 1:1000 dilution were used to detect human Notch intracellular domain (NICD1) and Notch2 intracellular domain (NICD2), respectively. β-actin was detected using a mouse monoclonal antibody (Santa Cruz Biotechnology) at 1:3000 dilution.

S1-M1-80 cells [1] = experiment: Clonogenicity assay, S1-M1-80; type: cell-based, human; conditions: for colony formation, combination with TPT: S1-M1-80, combined with 1 μM of TPT (DAPT 1 μM)
Procedure: The procedure for colony formation assay consists of following steps. An appropriate number of cells per well were seeded on a 6-well plate in duplicate. The number of cells for seeding should be related to the aggressiveness of the treatment. The cells were incubated for 12 hours in a CO2 incubator at 37° C. and allow cells to attach to the plate. The cells were treated with peptides or (DAPT) to required concentrations. The cells were incubated in a in a CO2 incubator at 37° C. for about 10 days until cells in control well have formed colonies which are of a substantially good size (the minimum score is 100 cells per colony). After the incubation, the medium was removed and cells were rinsed with 5 ml 1×PBS (phosphate buffered saline. pH 7.2). The cells were then fixed with 1 ml methanol at room temperature for 10 min. After fixation, the cells were stained with 0.5% crystal violet solution and incubated at room temperature for 1 h. After staining, the plates were immersed in deionized water to rinse off crystal violet and air-dried at room temperature for overnight. The dry plates were pictured with scanner. The number of colonies in each well was counted by cell counter software.

DLL4-Notch1 signalling = experiment: Co-culture Notch luciferase reporter assay, DLL4-induced; type: cell-based, human; conditions: DAPT 50 μM
Procedure: as §1
(§3) HEK-293T-Jagged-1 cells were seeded in 24-well plates in triplicate per sample group, and human HCT-116 cells were seeded in one 60 mm dish. Cells were allowed to settle, and were transfected the following day after the medium was changed to be antibiotic free. HCT-116 cells were transfected with 12×CSL-Luc and Renilla-Luc, using Lipofectamine® 3000 (Invitrogen™), according to the manufacturer's instructions. After 24 hours, HCT-116 cells were scraped and 2.5×10^4 cells in 1 mL complete medium per well were added to both 24-well plates. Peptides were treated to cells with the desired concentrations. N—[N-(3,5-difluorophenacetyl)-L-alanyl]-S-phenylglycine t-butyl ester (DAPT) was used as positive control. Cells were co-cultured for 12 hours before measure the luciferase activity. After incubation, cells were lysed with luciferase lysis buffer. Notch activity in cells expressing the 12×CSL-Luc reporter construct was measured by a luciferase assay using Dual-Luciferase® Reporter Assay System (Promega).

DLL4-induced NICD1 = experiment: Co-culture assay, DLL4-induced NICD1 level; type: cell-based, human
Procedure: as §1, §2

Jag1-Notch1 signalling = experiment: Co-culture Notch luciferase reporter assay, Jag1-induced; type: cell-based, human; conditions: for inhibition of Jag1-induced Notch1 signalling, dose response: reporter assay, DAPT 50 μM; for inhibition of Jag1-induced Notch signaling compared with N1: peptides 25 μM
Procedure: Jag1-Notch interaction is measured using a co-culture assay with one cell line expressing the Notch ligand Jagged1 (Jag1) and a second expressing Notch (either Notch1 or Notch2). A firefly luciferase reporter plasmid with 12 upstream CBF-1 binding site was transfected into signalling-receiving cells to report on Notch signalling (FIG. 1D). Peptides were tested for their activity in inhibiting Jag1-induced Notch signalling. Complete inhibition is equivalent to the background signal seen without induction (−Jag1). […] N1 (SEQ ID NO: 10) is a 15-mer derived from the EGF-like repeat 12 of Notch1 (C467-G481). This is consistent with the structural information that EGF-like repeat 12 of Notch1 is near the MNNL domain of Jag1 (FIGS. 1B and C).
as §1, §3

DLL1-induced NICD1 = experiment: Co-culture assay, DLL1-induced NICD1 level; type: cell-based, human
Procedure: as §1, §2

DLL1-Notch1 signalling = experiment: Co-culture Notch luciferase reporter assay, DLL1-induced; type: cell-based, human; conditions: DAPT 50 μM
Procedure: as §1, §3

NICD1 [2] = experiment: NICD1 formation in HCT-116; type: cell-based, human; conditions: peptides 100 μM
Procedure: (§4) This panel of peptides was also tested for their cytotoxic activities against two human colorectal cell lines (HCT-116 and HCT-15). At a concentration of 100 μM, N1 (SEQ ID NO: 10) is the only peptide that is cytotoxic to HCT-116 and HCT-15 cells (FIGS. 2B and C). Notch signaling results in the release of NICD1 from the membrane-bound Notch receptor.
as §2

NICD1 [3] = experiment: NICD1 formation in HCT-15; type: cell-based, human; conditions: peptides 100 μM
Procedure: as §4, §2

S1 = experiment: cells; type: cell-based, human
Procedure: (§5) HCT-116, HCT-15, S1-M1-80, S1, L929, HEK293T-Jagged-1 were seeded in each well of a 96-well plate with a series of concentrations (a serial dilution from 1000μM to 0.5 μM) of peptides or drugs including DAPT, Topotecan at 37° C. with 5% CO2 in a humidified incubator for 3 days. Percentage of survival was determined by MTS assay as described.

S1-M1-80 cells [4] = experiment: cells; type: cell-based, human
Procedure: as §5

NICD2 = experiment: Co-culture assay, NICD2 formation (Jag1-Notch2); type: cell-based, human
Procedure: as §1, §2

HEK-293T-Jagged-1 cells = type: cell-based, human
Procedure: as §5

in vitro = type: cell-based; conditions: mouse
Procedure: as §5

NICD1 [5] = experiment: NICD1 formation in S1-M1-80; type: cell-based, human; conditions: 10 μM
From the text: as §2

Row | Compound | inhibition of DLL4-Notch1 signalling (DLL4-Notch1 signalling) | inhibition of DLL1-Notch1 signalling (DLL1-Notch1 signalling) | IC50 at 3 days (in vitro) | IC50 (S1-M1-80 cells [4]) | inhibition of Jag1-induced Notch signaling compared with N1 (Jag1-Notch1 signalling) | IC50 (S1) | Jag1-induced NICD1 level (Jag1-induced NICD1) | colony formation, combination with TPT (S1-M1-80 cells [1]) | colony formation (S1-M1-80 cells [1]; S1-M1-80, single agent 10 μM) | inhibition of Jag1-induced Notch1 signalling, dose response (Jag1-Notch1 signalling) | IC50 (HEK-293T-Jagged-1 cells) | also measured
1 | C[C@H](NC(=O)Cc1cc(F)cc(F)c1)C(=O)N[C@H](C(=O)OC(C)(C)C)c1ccccc1 [DAPT, N—[N-(3,5-Difluorophenacetyl)-L-alanyl]-S-phenylglycine t-butyl ester, reference compound] | can inhibit all signaling | can inhibit all signaling |  |  |  |  | equally effective in inhibiting both NICD1 and NICD2 | 1074 colonies/well | 717 colonies/well | can inhibit all signaling |  | DLL4-induced NICD1 level (DLL4-induced NICD1): can inhibit both; DLL1-induced NICD1 level (DLL1-induced NICD1): can inhibit both; NICD1 formation in HCT-116 (NICD1 [2]): almost complete elimination of NICD1; NICD1 formation in HCT-15 (NICD1 [3]): almost complete elimination of NICD1; IC50 (S1; S1 cells, 3 days, MTS, read-out: IC50 (μM) S1): > 100 µM; IC50 (S1-M1-80 cells [4]; S1-M1-80 cells, 3 days, MTS, read-out: IC50 (μM) s1-m1-80): 17.1 ± 0.4 µM; NICD2 formation (NICD2): equally effective in inhibiting both NICD1 and NICD2
2 | CC[C@H](C)[C@H](NC(=O)[C@H](CCC(N)=O)NC(=O)[C@H](CC(=O)O)NC(=O)[C@H](CC(C)C)NC(=O)[C@H](CS)NC(=O)[C@@H](N)Cc1c[nH]c2ccccc12)C(=O)NCC(=O)N[C@@H](CCC(=O)O)C(=O)N[C@@H](Cc1ccccc1)C(=O)N[C@@H](CCC(N)=O)C(=O)N[C@@H](CS)C(=O)N[C@H](C(=O)N[C@@H](CS)C(=O)N[C@@H](CCC(=O)O)C(=O)O)[C@@H](C)CC [N102T466W-M479E, WCLDQIGEFQCICE] (H-WCLDQIGEFQCICE-OH; N-terminus and C-terminus assumed) |  |  | > 100 µM | 54.3 ± 5.2 µM |  |  |  |  |  |  | > 100 µM | 

Second part, led by results:

Row | inhibition of DLL4-Notch1 signalling (DLL4-Notch1 signalling) | inhibition of DLL1-Notch1 signalling (DLL1-Notch1 signalling) | IC50 at 3 days (in vitro) | IC50 (S1-M1-80 cells [4]) | inhibition of Jag1-induced Notch signaling compared with N1 (Jag1-Notch1 signalling) | IC50 (S1) | Compound | Jag1-induced NICD1 level (Jag1-induced NICD1) | colony formation, combination with TPT (S1-M1-80 cells [1]) | colony formation (S1-M1-80 cells [1]; S1-M1-80, single agent 10 μM) | inhibition of Jag1-induced Notch1 signalling, dose response (Jag1-Notch1 signalling) | IC50 (HEK-293T-Jagged-1 cells) | also measured
3 |  |  | > 100 µM | 14.9 ± 4.8 µM |  |  | CC[C@H](C)[C@H](NC(=O)[C@H](CCC(N)=O)NC(=O)[C@H](CC(=O)O)NC(=O)[C@H](CC(C)C)NC(=O)[C@H](CS)NC(=O)[C@@H](N)Cc1ccc(O)cc1)C(=O)NCC(=O)N[C@@H](CCC(=O)O)C(=O)N[C@@H](Cc1ccccc1)C(=O)N[C@@H](CCC(N)=O)C(=O)N[C@@H](CS)C(=O)N[C@H](C(=O)N[C@@H](CS)C(=O)N[C@@H](CCC(=O)O)C(=O)O)[C@@H](C)CC [N102T466Y-M479E, YCLDQIGEFQCICE] (H-YCLDQIGEFQCICE-OH; N-terminus and C-terminus assumed) |  |  |  |  | > 100 µM | 
4 | did not interfere | did not interfere | > 100 µM | 5.8 ± 0.2 µM | biggest improvement | > 50 µM | CC[C@H](C)[C@H](NC(=O)[C@H](CCC(N)=O)NC(=O)[C@H](CC(=O)O)NC(=O)[C@H](CC(C)C)NC(=O)[C@@H](N)CS)C(=O)NCC(=O)N[C@@H](CCC(=O)O)C(=O)N[C@@H](Cc1ccccc1)C(=O)N[C@@H](CCC(N)=O)C(=O)N[C@@H](CS)C(=O)N[C@H](C(=O)N[C@@H](CS)C(=O)N[C@@H](CC(=O)O)C(=O)O)[C@@H](C)CC [Peptide N102M479D, CLDQIGEFQCICD] (H-CLDQIGEFQCICD-OH; N-terminus and C-terminus assumed) | significantly decreased expression level of NICD1 |  |  | inhibited Jag1-induced Notch1 signaling in dose dependent manner | > 100 µM | 
5 | did not interfere | did not interfere | > 100 µM | 4.9 ± 0.2 µM | biggest improvement | > 30 µM | CC[C@H](C)[C@H](NC(=O)[C@H](CCC(N)=O)NC(=O)[C@H](CC(=O)O)NC(=O)[C@H](CC(C)C)NC(=O)[C@@H](N)CS)C(=O)NCC(=O)N[C@@H](CCC(=O)O)C(=O)N[C@@H](Cc1ccccc1)C(=O)N[C@@H](CCC(N)=O)C(=O)N[C@@H](CS)C(=O)N[C@H](C(=O)N[C@@H](CS)C(=O)N[C@@H](CCC(=O)O)C(=O)O)[C@@H](C)CC [Peptide N102M479E, CLDQIGEFQCICE] (H-CLDQIGEFQCICE-OH; N-terminus and C-terminus assumed) | significantly decreased expression level of NICD1 | 581 colonies/well | 84 colonies/well | inhibited Jag1-induced Notch1 signaling in dose dependent manner | > 100 µM | colony formation of S1-M1-80, dose response (S1-M1-80 cells [1]): effectively reduced colony formation; colony formation of S1-M1-80 (S1-M1-80 cells [1]; 1 μM): reduced by half; more potent than DAPT (colony formation) (S1-M1-80 cells [1]; 1 μM): 14%; colony formation of S1-M1-80 (S1-M1-80 cells [1]; 5 μM): almost eliminated the formation of all colonies; colony formation of S1-M1-80 (S1-M1-80 cells [1]; 10 μM): completely eliminated the formation of colonies; colony formation (S1-M1-80 cells [1]; S1-M1-80, single agent 1 μM): 925 colonies/well; effect with topotecan on colony formation of S1-M1-80 (S1-M1-80 cells [1]; TPT plus N102M479E): synergistic; increase of potency over TPT-DAPT combination (colony formation) (S1-M1-80 cells [1]; combined with 1 μM of TPT): 19%; NICD1 formation in S1-M1-80 cells (NICD1 [5]): totally suppress NICD1 formation
